Series [1] concerns the target Multidrug resistance-associated protein 1 (MRP1) (Homo sapiens, UniProt P33527). The series can be described thus: TP_TRANSPORTER: inhibition of CFDA efflux (CFDA: 1 uM, Genistein: 10 mM) in HL60/Adr cells. The format is functional, cell-based. The conditions noted are these: probe CFDA, read-out: Activity.
For series [2], the target named is Multidrug resistance-associated protein 1 (Homo sapiens, UniProt P33527). The series can be described thus: TP_TRANSPORTER: inhibition of CFDA efflux (CFDA: 1 uM, DHT: 5-50 uM) in HL60/Adr cells. The format is functional, cell-based.

Each structure is given as a SMILES string.

Chain of Multidrug resistance-associated protein 1 (MRP1) (P33527 whole entry): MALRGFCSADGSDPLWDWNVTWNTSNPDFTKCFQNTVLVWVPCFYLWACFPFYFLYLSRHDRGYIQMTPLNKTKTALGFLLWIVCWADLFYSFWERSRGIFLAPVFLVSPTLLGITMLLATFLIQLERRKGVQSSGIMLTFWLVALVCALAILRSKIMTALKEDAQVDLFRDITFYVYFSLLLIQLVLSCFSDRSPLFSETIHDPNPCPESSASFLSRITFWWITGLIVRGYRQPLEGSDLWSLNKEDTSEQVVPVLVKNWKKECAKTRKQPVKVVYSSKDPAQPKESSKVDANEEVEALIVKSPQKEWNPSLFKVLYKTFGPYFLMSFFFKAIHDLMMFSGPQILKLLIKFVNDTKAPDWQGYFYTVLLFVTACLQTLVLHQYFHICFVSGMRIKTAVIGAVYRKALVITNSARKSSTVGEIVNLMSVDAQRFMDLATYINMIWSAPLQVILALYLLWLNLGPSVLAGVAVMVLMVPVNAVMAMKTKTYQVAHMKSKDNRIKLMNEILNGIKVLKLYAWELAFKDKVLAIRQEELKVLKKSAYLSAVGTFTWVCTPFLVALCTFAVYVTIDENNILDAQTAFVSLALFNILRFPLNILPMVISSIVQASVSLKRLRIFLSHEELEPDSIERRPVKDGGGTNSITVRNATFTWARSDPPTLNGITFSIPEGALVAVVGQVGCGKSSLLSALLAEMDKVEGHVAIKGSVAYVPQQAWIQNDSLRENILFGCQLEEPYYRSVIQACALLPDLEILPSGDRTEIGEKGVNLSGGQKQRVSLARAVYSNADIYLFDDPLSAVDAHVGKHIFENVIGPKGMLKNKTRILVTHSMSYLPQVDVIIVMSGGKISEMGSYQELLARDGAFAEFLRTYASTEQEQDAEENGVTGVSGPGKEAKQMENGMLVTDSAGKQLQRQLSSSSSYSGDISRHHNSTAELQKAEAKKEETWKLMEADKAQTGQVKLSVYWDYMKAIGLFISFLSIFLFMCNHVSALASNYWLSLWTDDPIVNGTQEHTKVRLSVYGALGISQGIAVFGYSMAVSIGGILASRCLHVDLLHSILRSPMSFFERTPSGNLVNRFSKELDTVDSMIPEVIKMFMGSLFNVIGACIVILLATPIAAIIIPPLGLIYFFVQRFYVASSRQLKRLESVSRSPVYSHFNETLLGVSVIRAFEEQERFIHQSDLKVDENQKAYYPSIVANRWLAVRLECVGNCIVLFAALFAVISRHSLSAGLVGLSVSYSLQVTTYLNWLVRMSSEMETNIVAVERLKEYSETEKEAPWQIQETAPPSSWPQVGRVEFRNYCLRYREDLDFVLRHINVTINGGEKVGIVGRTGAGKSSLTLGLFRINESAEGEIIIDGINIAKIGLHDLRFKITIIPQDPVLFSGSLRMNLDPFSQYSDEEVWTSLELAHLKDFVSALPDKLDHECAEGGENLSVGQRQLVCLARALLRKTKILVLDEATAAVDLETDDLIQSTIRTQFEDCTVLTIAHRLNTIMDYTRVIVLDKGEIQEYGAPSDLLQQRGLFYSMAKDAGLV
Chain of Multidrug resistance-associated protein 1 (P33527 whole entry): as above

Take `O=c1c(-c2ccc(O)cc2)coc2cc(O)cc(O)c12` [GENISTEIN]: the inhibition at 10 mM in series [1] was 94.6%.
Regarding `C=C(CC[C@H](O)[C@@]1(C)CC[C@H](C(C)(C)O)O1)[C@H]1CC[C@H]2O[C@@H]([C@]3(C)CC[C@@H](Br)C(C)(C)O3)CC[C@]2(C)O1` [DEHYDROTHYRSIFEROL], the Activity result in series [2] is “is not an inhibitor [-]”.

Values taken from ChEMBL document CHEMBL2073888, “Dehydrothyrsiferol does not modulate multidrug resistance-associated protein 1 resistance: a functional screening system for MRP1 substrates” (Int J Mol Med, 2002).
